Data on 70 compounds can be found in PubChem BioAssay AID179 (DTP/NCI, 2004).

This experiment deals with CEM cells HIV-1 protection, formazan growth assay. The experiment in a line: NCI AIDS Antiviral Assay. The conditions noted are these: for IC50: measured here: growth of uninfected CEM cells. The essentials:
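Human CEM cells, uninfected and HIV-1-infected, exposed to five drug concentrations; growth measured by soluble formazan assay and scored as percent protection from infection, with protecting compounds retested.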

Values joined by “and” are separate entries in the source; they are usually repeats but may differ in a detail not shown here. Identical values can stand only once. Active and inactive are the calls of the source.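 The calls were made as follows: active = compounds giving half or more protection of infected cells from virus-caused growth loss, again on retest; inactive = the rest.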

One may read the EC50 as the concentration giving half of the maximal effect. As a reminder, the IC50 is the concentration that gives 50% inhibition. Low values mean inhibition by little substance, high ones a need for much substance. Consider `COc1cc(OC)c(/C=C/c2ccncn2)c(OC)c1`, for which the EC50 was greater than 182 µM and the IC50 was 93.3 µM.
In the same order, the values of `COC(=O)CN=C1NC(=S)N(Cc2ccc(OC)cc2)C12CCCC2` are greater than 200 µM and greater than 200 µM.
In the same order, the values of `CC(C)[Si]([Se]c1ccccc1)(C(C)C)C(C)C` are greater than 21.9 µM and greater than 21.9 µM.
In the same order, the values of `CCn1c2ccccc2c2cc(N=Nc3ccc(C#N)cc3)ccc21` are 10.7 µM and greater than 200 µM.
As to `Cc1ccc(S/C=C/C(=O)Nc2ccccc2)cc1`, the EC50 is greater than 37.2 µM; the IC50 was > 37.2 µM and 25.1 µM.
On to `N#C/C(=C\c1cccs1)c1ccccc1`, for which the EC50 was greater than 200 µM and the IC50 came to 117 µM.
In the same order, the values of `Sc1ccccc1N=Cc1cccs1` are greater than 200 µM and 93.3 µM.
The like results for `CON(C)C(C#N)=C(C#N)C#N` were, in that order, greater than 200 µM and greater than 200 µM.
In the same order, the values of `CC1CN=C(N(C(=O)Nc2ccccc2)c2ccccc2)S1` (stereo not drawn) are greater than 200 µM and greater than 200 µM.
Turning to `CC(O)c1nc2c3ccccc3ccc2n1C` (stereo not drawn), the EC50 is greater than 776 µM and the IC50 stood at 389 µM.
The like results for `C/C(C/C(C)=N\N=C(N)N)=N/N=C(N)N` were, in that order, greater than 200 µM and greater than 200 µM.
In the same order, the values of `O=C(O)c1cc(Cl)cc(NC(=O)C(Cl)Cl)c1Cl` are greater than 794 µM and 617 µM.
The like results for `NC(=O)C12CC3CC(CC(Br)(C3)C1)C2` were, in that order, greater than 977 µM and 891 µM.
For `N#C/C(=C\c1ccc(O)c(O)c1)C(N)=O`, the EC50 was greater than 25.1 µM and the IC50 worked out at 10.5 µM.
The like results for `CCCCCCCCCCCc1c2[nH]c3cc(C)ccc3oc2cc2[nH]c3cc(C)ccc3oc12` were, in that order, greater than 2 µM and greater than 2 µM.
As to `COC1=C2C[C@@H](C)C[C@@H](OC)[C@@H](O)[C@H](C)/C=C(\C)[C@@H](OC(N)=O)[C@H](OC)/C=C\C=C(/C)C(=O)NC(=CC1=O)C2=O`, the EC50 is greater than 1.15 µM and the IC50 was 0.0813 µM.
The like results for `CC(=O)Nc1ccccc1/C=C\c1ccccn1` were, in that order, greater than 1050 µM and greater than 1050 µM.
`C/C(=C1/N=C(c2cc([N+](=O)[O-])ccc2Cl)N(c2ccc(Br)cc2)C1=O)c1cc2ccccc2oc1=O`: the EC50 is greater than 24 µM.
In the case of `CCOC(=O)/C=C/[C@H](O)[C@@H](O)/C=C/C(=O)OCC`, the EC50 is greater than 200 µM and the IC50 was 17 µM.
In the same order, the values of `O=C(Nc1cccc(F)c1)c1c(O)[nH]c(=S)[nH]c1=O` are greater than 5.13 µM and greater than 5.13 µM.
In the same order, the values of `Cn1c2ccccc2c2nnc(N/N=C/c3cccs3)nc21` are greater than 200 µM and greater than 200 µM.
In the same order, the values of `Cc1ccc2oc(=O)c(C(=O)Nc3nc(C45CC6CC(CC(C6)C4)C5)cs3)cc2c1` are greater than 100 µM and greater than 100 µM.
As for `Cc1ccc2c(c1)P(=O)(O)c1cc(C)ccc1S2(=O)=O`, the EC50 was greater than 200 µM and the IC50 is greater than 200 µM.
Regarding `CCOP(=O)(CN=C(c1ccccc1)c1ccccc1)OCC`, the EC50 is greater than 200 µM and the IC50 is greater than 200 µM.
Turning to `O=c1c2ccccc2nc2sc(/N=C/C=C/c3ccccc3)nn12`, the EC50 was greater than 200 µM and the half-inhibitory concentration (IC50) was determined as 41.7 µM.
In the same order, the values of `N/N=C(\c1ccccc1)c1ccc([N+](=O)[O-])cc1` are greater than 135 µM and 97.7 µM.
In the case of `C[N+](C)(C)CC(=O)N/N=C(\C(=O)NC1=C(Cl)C(=O)c2ccccc2C1=O)C(C#N)c1csc(-c2ccc([N+](=O)[O-])cc2)n1` (stereo not drawn), the result was inactive.
For `C=CCNC(=O)CN(CC(=O)O)C1CCCCC1N(CC(=O)O)CC(=O)O` (stereo not drawn), the EC50 was greater than 200 µM and the IC50 is greater than 200 µM.
Consider `COc1ccc(-c2nc(Sc3c([N+](=O)[O-])ncn3C)n[nH]2)cc1`, for which the EC50 was greater than 537 µM and the IC50 is 0.562 µM.
On to `CCOC(=O)c1[nH]n(-c2ccccc2)c(=O)c1/C=N/C(=S)Nc1ccccc1`, for which the EC50 was greater than 200 µM and the IC50 is 51.3 µM.
Turning to `O=C(CCc1n[nH]c(=S)o1)Nc1ccc(Cl)cc1Cl`, the EC50 is greater than 31.6 µM and the IC50 was greater than 31.6 µM.
Consider `O=C(NNC(=O)/C(=C/c1cccc([N+](=O)[O-])c1)NC(=O)c1ccccc1)Nc1ccc(Cl)cc1`, for which the EC50 is greater than 38.9 µM and the IC50 came out at 24.5 µM.
In the same order, the values of `NC12c3c4cccc3Oc3cccc(c31)Oc1cccc(c12)O4` are greater than 50.1 µM and 28.8 µM.
Consider `Cc1nc(-c2ccccc2)cc2c1c(=O)oc1ccccc12`, for which the EC50 was greater than 5.01 µM and the IC50 was greater than 5.01 µM.
As to `C(=C\c1nc2ccccc2s1)/c1ccc2c(c1)OCO2`, the EC50 was greater than 6.76 µM and the IC50 was greater than 6.76 µM.
Regarding `COc1ccc(CCn2c(=O)c3ccccc3n(C)c2=O)cc1`, the EC50 was greater than 83.2 µM and the IC50 worked out at 32.4 µM.
The like results for `Cc1cccc(C(C)(C)C)c1NC(=O)C(=O)C(c1cnc2ccccc2n1)[N+](=O)[O-]` (stereo not drawn) were, in that order, greater than 324 µM and 120 µM.
In the same order, the values of `Nc1nc2ncn(COC(CO)CO)c2c(=O)[nH]1` are greater than 200 µM and greater than 200 µM.
The like results for `C[C@]12CCC[C@](C)(C(=O)O)[C@@H]1CC[C@@]13C[C@@H](CC[C@@H]12)[C@@H](C(=O)O)C3` were, in that order, greater than 200 µM and greater than 200 µM.
Regarding `Cc1ccccc1C1(Br)C(=O)c2ccccc2C1=O`, the EC50 was greater than 200 µM and the IC50 is 33.9 µM.
The like results for `CCOC(=O)c1cn2ccccc2c(C(C)=O)c1=N` were, in that order, greater than 200 µM and 166 µM.
In the same order, the values of `CC(C)(C)OC(=O)NC(Cc1ccc(OCc2ccccc2)cn1)C(N)=O` (stereo not drawn) are greater than 200 µM and greater than 100 µM.
In the same order, the values of `CCOC(=O)c1ccc(CS(=O)(=O)c2ccc(Cl)cc2)cc1` are greater than 55 µM and greater than 55 µM.
Consider `Cc1ccc(N=C2N=C(N3CC(C)OC(C)C3)c3ccccc32)cc1` (stereo not drawn), for which the EC50 was greater than 107 µM and the half-inhibitory concentration (IC50) stood at 26.3 µM.
In the same order, the values of `COc1cc(C(c2cccc3ccccc23)N2C(=O)CCC2C(=O)O)cc(OC)c1OC` (stereo not drawn) are greater than 200 µM and greater than 200 µM.
Take `Cc1nc(N)c(N2CCN([N+](=O)[O-])CC2)c(=O)[nH]1`: the outcome was inactive.
For `CN(C)S(=O)(=O)c1c(N)ncn1C`, the EC50 is greater than 1230 µM and the IC50 was greater than 1230 µM.
As to `COc1ccc2c(c1)O[C@]1(O)c3cc4c(cc3O[C@@H]1C2)OCO4`, the EC50 is greater than 12 µM and the IC50 was greater than 12 µM.
With `CCN1CC2(C)CCC(OC)C34C5CC6CCC(O)(C5C(=O)O6)C(C(O)C23)C14` (stereo not drawn), the result was inactive.
In the case of `CC(C)CCCC(C)[C@H]1CC[C@H]2[C@@H]3CC[C@H]4C[C@@H](CCC=C(c5cc(Cl)c(OCc6ccc(B7OC(C)(C)C(C)(C)O7)cc6)c(C(=O)OCc6ccc(B7OC(C)(C)C(C)(C)O7)cc6)c5)c5cc(Cl)c(OCc6ccc(B7OC(C)(C)C(C)(C)O7)cc6)c(C(=O)OCc6ccc(B7OC(C)(C)C(C)(C)O7)cc6)c5)CC[C@]4(C)[C@H]3CC[C@]12C` (stereo partly drawn), the EC50 is greater than 200 µM and the IC50 is greater than 200 µM.
`CN(C)CCn1c2c(c3ccccc31)CCc1ccccc1-2`: the EC50 was greater than 200 µM and the IC50 came out at 15.5 µM.
In the same order, the values of `COc1cccc(CN2CCN(/N=C/c3c4c(O)c5c(O)c(C)c6c(c5c3O)C(=O)C(C)(O/C=C/C(OC)C(C)C(OC(C)=O)C(C)C(O)C(C)C(O)C(C)/C=C/C=C(C)C(=O)N4)O6)CC2)c1` (stereo not drawn) are greater than 200 µM and 6.61 µM.
The like results for `CCOC(=O)C1=NC(c2ccccc2)(c2ccccc2)OC1=C(Cl)Cl` were, in that order, greater than 1 µM and greater than 1 µM.
The like results for `NCCCN=c1ccc2c3c1c(O)c1c(O)ccc(=O)c1c3[nH]n2CCNCCO` were, in that order, greater than 525 µM and 1.07 µM.
Regarding `CC(C)(C)OC(=O)N/N=C(/N)c1ccccc1`, the EC50 was greater than 200 µM and the IC50 is greater than 200 µM.
For `CS(=O)(=O)c1nc(N)nc2nc[nH]c12`, the EC50 is greater than 200 µM and the IC50 was greater than 200 µM.
Consider `C/C(=N\Nc1ccccc1Br)c1cccc(/C(C)=N/Nc2ccccc2Br)n1`, for which the EC50 is greater than 100 µM and the IC50 worked out at 85.1 µM.
For `Cc1cccc(/C=N/NC(=S)N2CCCCCC2)n1`, the EC50 was greater than 200 µM and the IC50 amounted to 0.0631 µM.
The like results for `COc1cc(OC)c(OC)cc1/C=C\c1nccc2ccccc12` were, in that order, greater than 30.9 µM and 22.4 µM.
In the same order, the values of `CC1CC(C#N)=C2NCCN2C1=O` (stereo not drawn) are greater than 200 µM and greater than 200 µM.
Turning to `Cn1c(=O)nc2n(-c3ccc(Cl)cc3)c3cc(Cl)ccc3nc-2c1=O`, the outcome was inactive.
Take `CC12CC3(C)CC(C)(C1)CC(C(NC(C)(C)C)C(=O)O)(C2)C3` (stereo not drawn): the outcome was inactive.
In the case of `COC(=O)[C@@H]1CO[C@H](C(C)(C)C)N1C(=O)N1C=CC(=O)C[C@H]1C`, the EC50 is greater than 200 µM and the IC50 was greater than 200 µM.
For the compound `O=C(O)C1(Cl)C2(Cl)C(Cl)=CC3(Cl)C(Cl)(C(=O)O)C2(Cl)C31Cl` (stereo not drawn), the EC50 was greater than 200 µM and the IC50 is greater than 200 µM.
For `CCCCCCCCCCCCCCCCCc1nnc(N)o1`, the outcome was inactive.
On to `Cc1ccc(-c2nc(-c3cnccn3)n(C3OC(CO)C(O)C(O)C3O)n2)cc1` (stereo not drawn), for which the EC50 was greater than 200 µM and the IC50 was greater than 200 µM.
For `CC(=O)OCC1OC(N2C(=O)NC(=O)C3C=C4CCCCC4=CC32)CC1OC(C)=O` (stereo not drawn), the EC50 is greater than 200 µM and the IC50 is 117 µM.
In the same order, the values of `O=C1c2cccc3cc([N+](=O)[O-])cc(c23)C(=O)N1CCCN1CCN(CCCNc2ccc3ncn4c5ccccc5c(=O)c2c34)CC1` are greater than 0.00501 µM and 0.0049 µM.
In the same order, the values of `CC1=C(C(=O)N[C@@H](Cc2ccccc2)C(=O)O)N2C(=O)[C@@H](NC(=O)[C@@H](N)CC(C)C)[C@H]2SC1` are 174 µM and greater than 200 µM.
In the same order, the values of `CCCCNCCCC.[C-]#[O+].[C-]#[O+].[C-]#[O+].[C-]#[O+].[C-]#[O+].[Cr]` are greater than 200 µM and 56.2 µM.
